Test results: paper PMC11596392, “Enhanced Antibacterial, Anti-Inflammatory, and Antibiofilm Activities of Tryptophan-Substituted Peptides Derived from Cecropin A-Melittin Hybrid Peptide BP100” (Molecules, 2024)

What was measured:
[1] = system: MDRPA (CCARM 2095) biofilm formation; format: cell-based, multidrug-resistant Pseudomonas aeruginosa; conditions: overnight 37 °C, crystal violet staining
Source text: Bacterial biofilms, comprising communities of bacterial cells encased in a matrix of polysaccharides and nucleic acids, present a significant challenge for conventional antibiotics due to the protective nature of this matrix. Biofilms can enhance bacterial resistance to antibiotics by up to 1000-fold compared to planktonic bacteria. To address this issue, there is an urgent need to discover and develop novel alternative therapeutic agents capable of effectively combating biofilm-forming bacteria. […] Our research specifically focused on evaluating the impact of BP100 and its analogs on biofilm formation and eradication using multidrug-resistant Pseudomonas aeruginosa (MDRPA), a common pathogen responsible for biofilm-mediated nosocomial infections. The adhered biomass was quantified using crystal violet staining, and the minimum biofilm inhibitory concentration (MBIC90) was determined as the lowest concentration required to inhibit 90% of biofilm growth relative to the positive control. […] Human cathelicidin LL-37 is well-documented for its potent antibiofilm properties.
The inhibitory activity of the peptides on biofilm formation was evaluated against multidrug-resistant Pseudomonas aeruginosa (MDRPA) (CCARM 2095) using a biofilm inhibition assay to determine the minimal biofilm inhibitory concentration (MBIC). Peptide solutions were serially diluted in sterile water and aliquoted (100 μL) into a 96-well Costar polypropylene plate (Corning Inc., Corning, NY, USA). An equal volume of MDRPA suspension in Mueller–Hinton Broth (MHB), adjusted to 1 × 10^6 CFU/mL, was added to each well, resulting in a final inoculum density of 5 × 10^5 CFU/mL. Following overnight incubation at 37 °C, bacterial growth was quantified by measuring the optical density (OD) at 595 nm. Planktonic cells were then discarded, and the attached biofilms were washed thrice with distilled water. Residual biofilms were stained with 0.1% crystal violet for five minutes, washed to remove non-adherent dye, and subsequently destained using 95% ethanol. The OD at 595 nm was measured again to assess the biofilm mass. Control wells contained untreated bacteria. The MBIC was defined as the lowest peptide concentration that inhibited any residual crystal violet staining or biofilm formation. All assays were conducted in triplicate to ensure reproducibility. This method allows for the quantitative assessment of the peptides’ ability to prevent biofilm formation, a critical virulence factor in many bacterial infections, particularly those caused by multidrug-resistant strains.

[2] = system: preformed MDRPA (CCARM 2095) biofilms; format: cell-based, multidrug-resistant Pseudomonas aeruginosa; conditions: 24 h treatment
Method: While preventing biofilm formation on surfaces is crucial, treating established biofilm infections presents a significant challenge due to the extracellular polymeric substance (EPS) matrix hindering antibiotic penetration and the high cell density within mature biofilms. To address this challenge, we evaluated the ability of BP100 and its analogs to eradicate established MDRPA biofilms over a 24 h period. The minimum biofilm eradication concentration (MBEC90) was determined using crystal violet staining as the lowest concentration that reduced biomass by more than 90%. Among these peptides, BP5, BP6, BP7, BP8, BP9, BP11, and BP13 eradicated preformed MDRPA biofilms by more than 90% at a concentration of 8 μM (Figure 3c,d and Table 3).
The minimal biofilm eradication concentration (MBEC) for peptides against the multidrug-resistant Pseudomonas aeruginosa (MDRPA) (CCARM 2095) strain was assessed using the Calgary Biofilm Device (CBD), supplied by Innovotech, Edmonton, AB, Canada. A bacterial suspension with a density of (1 × 10^6) CFU/mL in (150 µL) of Luria–Bertani (LB) media was dispensed into each well of a 96-well microtiter plate, which was equipped with a peg lid (Innovotech, product code: 19111). This plate was incubated at 37 °C for 24 h with agitation at 110 rpm, promoting biofilm formation on the pegs. Subsequently, the peg lid was washed with phosphate-buffered saline (PBS, 0.01 M) and relocated to a fresh plate containing varying peptide concentrations (200 µL per well). The biofilms were then subjected to these peptides under the same incubation conditions. After another PBS rinse, the peg lid was moved to a recovery plate filled with (200 µL) of LB media per well. To detach the biofilms from the pegs, the recovery plate underwent sonication in a water bath for 10 to 15 min. Finally, the recovery plate was incubated at 37 °C for 24 h with agitation at 110 rpm, allowing any surviving bacteria to proliferate and cause turbidity. The MBEC is defined as the lowest concentration of peptides that inhibited turbidity formation in the recovery plate in comparison to sterility controls. This experiment was conducted in triplicate, and the median value from each trial was recorded.

bacterial strains = experiment: Geometric mean (GM) of MIC values over the bacterial strains; format: cell-based; conditions: over the 11 bacterial strains of Table 2
Method: The antibacterial efficacy of the synthesized peptides was evaluated by determining the minimal inhibitory concentrations (MICs) against six standard bacterial strains and five drug-resistant bacterial strains using the Clinical and Laboratory Standards Institute (CLSI) microdilution method. Melittin served as the positive control.
The minimal inhibitory concentrations (MICs) of the peptides against bacterial strains were determined using a modified broth-microdilution method in accordance with the National Committee for Clinical Laboratory Standards (NCCLS) guidelines. Overnight cultures were diluted in cation-adjusted Mueller–Hinton Broth (MHB) to achieve an inoculum density of 2 × 10^6 CFU/mL. A two-fold serial dilution of the peptide solution (100 μL) was introduced into microtiter plates, followed by the addition of 100 μL of bacterial suspension. The plates were then incubated at 37 °C for 24 h to determine the MICs. Wells containing only culture media served as negative controls, while those with added bacteria functioned as positive controls. The MIC, expressed in μM, was defined as the lowest peptide concentration that prevented visible bacterial growth. […]

MDRPA (CCARM 2095) = format: cell-based, multidrug-resistant Pseudomonas aeruginosa; conditions: checkerboard, 37 °C, 24 h
Source text: Multidrug-resistant pathogens pose a significant challenge to both human and animal health. The steady decline in the discovery of new antibiotics has exacerbated the difficulty in developing effective therapies for infection control. Consequently, there is an urgent need for alternative strategies that can combat pathogens without inducing drug resistance. One such strategy involves the combination of different antimicrobial agents. The effects of antimicrobial peptides (AMPs) combined with conventional antibiotics often surpass those of individual drugs. […] The primary advantage of synergistic combinations lies in their ability to lower the concentration of each antimicrobial agent required for effective antibacterial activity. This approach offers several benefits, including reduced production costs, a decreased risk of adverse side effects, diminished toxicity to mammalian cells, and a lower likelihood of drug resistance development. In light of these potential advantages, we investigated the synergistic effects of BP100 and the five selected analogs in combination with ciprofloxacin against multidrug-resistant Pseudomonas aeruginosa (MDRPA) using a checkerboard synergy assay. Ciprofloxacin, an antibiotic belonging to the fluoroquinolone class, is commonly used to treat various bacterial infections, including urinary tract infections and pneumonia. It exerts a bactericidal effect by inhibiting bacterial DNA gyrase, thereby disrupting DNA replication and transcription […]. The fractional inhibitory concentration index (FICI) results for BP100 and its selected analogs, when paired with ciprofloxacin against MDRPA, are detailed in Table 5. […] Such combinations may offer a valuable approach to enhancing the efficacy of existing antibiotics and potentially mitigating the development of antimicrobial resistance.
The synergistic effects of peptide-antibiotic combinations against methicillin-resistant Staphylococcus aureus (MRSA; CCARM 3089) and multidrug-resistant Pseudomonas aeruginosa (MDRPA; CCARM 2095) were evaluated using the fractional inhibitory concentration index (FICI) method. Antibiotics and peptides were subjected to two-fold serial dilutions, mixed in equal ratios, and combined with a bacterial suspension adjusted to approximately 10^6 CFU/mL. The resulting mixtures were distributed into microplate wells and incubated at 37 °C with orbital shaking at 200 rpm for 24 h. Bacterial growth was monitored by measuring the optical density at 600 nm (OD600). The FICI was calculated using the broth microdilution checkerboard method, defined as the sum of the ratios of the minimum inhibitory concentrations (MICs) of each agent in combination to their individual MICs, according to the following equation: FICI = (MIC of antibiotic in combination/MIC of antibiotic alone) + (MIC of peptide in combination/MIC of peptide alone). The interpretation of FICI values was as follows: FICI ≤ 0.5 indicates synergy; 0.5 < FICI ≤ 1.0 indicates an additive effect; 1.0 < FICI ≤ 4.0 indicates indifference; and FICI > 4.0 indicates antagonism.

## CC[C@H](C)[C@H](NC(=O)[C@H](CCCCN)NC(=O)[C@H](CCC(=O)O)NC(=O)[C@H](CCCCN)NC(=O)[C@H](CO)NC(=O)[C@H](CCCCN)NC(=O)[C@H](CCCNC(=N)N)NC(=O)[C@H](Cc1ccccc1)NC(=O)[C@H](Cc1ccccc1)NC(=O)[C@H](CC(=O)O)NC(=O)CNC(=O)[C@H](CC(C)C)NC(=O)[C@@H](N)CC(C)C)C(=O)NCC(=O)N[C@@H](CCCCN)C(=O)N[C@@H](CCC(=O)O)C(=O)N[C@@H](Cc1ccccc1)C(=O)N[C@@H](CCCCN)C(=O)N[C@@H](CCCNC(=N)N)C(=O)N[C@H](C(=O)N[C@H](C(=O)N[C@@H](CCC(N)=O)C(=O)N[C@@H](CCCNC(=N)N)C(=O)N[C@H](C(=O)N[C@@H](CCCCN)C(=O)N[C@@H](CC(=O)O)C(=O)N[C@@H](Cc1ccccc1)C(=O)N[C@@H](CC(C)C)C(=O)N[C@@H](CCCNC(=N)N)C(=O)N[C@@H](CC(N)=O)C(=O)N[C@@H](CC(C)C)C(=O)N[C@H](C(=O)N1CCC[C@H]1C(=O)N[C@@H](CCCNC(=N)N)C(=O)N[C@H](C(=O)N[C@@H](CCC(=O)O)C(=O)N[C@@H](CO)C(=O)O)[C@@H](C)O)C(C)C)[C@@H](C)CC)C(C)C)[C@@H](C)CC [LL-37, reference compound]
[1]; 50% inhibition
  MBIC50: 32 to 64 µM
[1]; 90% inhibition
  MBIC90: 64 µM
[2]; 50% eradication
  MBEC50: 32 µM
[2]; 90% eradication
  MBEC90: > 64 µM

## CC[C@H](C)[C@H](NC(=O)CN)C(=O)NCC(=O)N[C@@H](C)C(=O)N[C@H](C(=O)N[C@@H](CC(C)C)C(=O)N[C@@H](CCCCN)C(=O)N[C@H](C(=O)N[C@@H](CC(C)C)C(=O)N[C@H](C(=O)N[C@H](C(=O)NCC(=O)N[C@@H](CC(C)C)C(=O)N1CCC[C@H]1C(=O)N[C@@H](C)C(=O)N[C@@H](CC(C)C)C(=O)N[C@H](C(=O)N[C@@H](CO)C(=O)N[C@@H](Cc1c[nH]c2ccccc12)C(=O)N[C@H](C(=O)N[C@@H](CCCCN)C(=O)N[C@@H](CCCNC(=N)N)C(=O)N[C@@H](CCCCN)C(=O)N[C@@H](CCCNC(=N)N)C(=O)N[C@@H](CCC(N)=O)C(=O)N[C@@H](CCC(N)=O)C(N)=O)[C@@H](C)CC)[C@@H](C)CC)[C@@H](C)O)[C@@H](C)O)C(C)C)C(C)C [ME, melittin]
Bacterial strains
  GM (geometric mean of MIC values): 24.0 µM

## O=C(O)c1cn(C2CC2)c2cc(N3CCNCC3)c(F)cc2c1=O [ciprofloxacin, reference compound]
MDRPA (CCARM 2095)
  MICB: MIC of ciprofloxacin alone: 2048 µg/mL
